Like-named read-outs stand apart in the source and are kept apart here.
What was measured:
Type in all cases: cell-based
[1] = tested on: MCF-10A; test: Cancer activity screen (MTT cell survival), MCF-10A; conditions: Homo sapiens
[2] = tested on: HeLa; test: Cancer activity screen (MTT cell survival), HeLa; conditions: Homo sapiens
[3] = tested on: MCF-7; test: Cancer activity screen (MTT cell survival), MCF-7; conditions: Homo sapiens, MCF7
[4] = tested on: MDA-MB-231; test: Cancer activity screen (MTT cell survival), MDA-MB-231; conditions: Homo sapiens
[5] = tested on: MEF (C57BL/6); test: Cell survival, MEF; conditions: Mus musculus, read-out: IC50/μM MEF (C57BL/6)

| Compound | IC50 [1] [µM] | IC50 [2] [µM] | IC50 [3] [µM] | IC50 [4] [µM] | IC50 ([5]; second table) [µM] | IC50 ([3]; second table) [µM] | IC50 ([4]; second table) [µM] | IC50 [5] [µM] |
| --- | --- | --- | --- | --- | --- | --- | --- | --- |
| CCn1c(=O)/c(=C2\Sc3ccccc3N2C)s/c1=C\c1cccc[n+]1Cc1ccc(F)c(F)c1 | 3.06 ± 0.38 | 12.3 ± 1.21 | 9.6 ± 2.98 | 4.4 ± 0.39 | – | – | – | – |
| CCn1c(=O)/c(=C2\Sc3cc(OC(F)(F)F)ccc3N2C)s/c1=C\c1scc[n+]1Cc1ccccc1 | – | – | – | – | 1.2 ± 0.1 | 0.4 ± 0.04 | 0.8 ± 0.1 | – |
| CN1/C(=c2\s/c(=C\c3cccc[n+]3Cc3ccccc3)n(Cc3ccccc3)c2=O)Sc2ccccc21 | 1.34 ± 0.16 | 5.89 ± 0.87 | 2.15 ± 0.68 | 1.8 ± 0.34 | – | – | – | – |
| CCN1C(=O)/C(=C2\Sc3cc(C(F)(F)F)ccc3N2C)S/C1=N\c1ccccc1 | – | – | – | – | > 50 | – | 16.2 ± 1.12 | – |
| CCn1c(=O)/c(=C2\Sc3ccc(OC)cc3N2C)s/c1=C\c1cccc[n+]1Cc1ccccc1 | 1.74 ± 0.19 | 3.63 ± 0.32 | 1.6 ± 0.36 | 1.43 ± 0.19 | – | – | – | – |
| CCn1c(=O)/c(=C2\Sc3cc(Cl)ccc3N2C)s/c1=C\c1ccc(C#N)c[n+]1Cc1ccccc1 | – | – | – | – | > 50 | – | 1.92 ± 0.16 | – |
| CCn1c(=O)/c(=C2\Sc3ccccc3N2C)s/c1=C\c1scc[n+]1Cc1ccccc1 | – | – | – | – | 6.8 ± 0.4 | 0.6 ± 0.04 | 0.5 ± 0.1 | – |
| CCn1c(=O)/c(=C2\Sc3cc(F)ccc3N2C)s/c1=C\c1cccc[n+]1CC | – | – | – | – | > 30 | 0.9 ± 0.3 | 8.3 ± 1.1 | – |
| CCn1c(=O)/c(=C2\Sc3ccc(Cl)cc3N2C)s/c1=C\c1scc[n+]1Cc1ccccc1 | – | 4.32 ± 0.43 | 0.83 ± 0.23 | 0.62 ± 0.1 | – | – | – | – |
| CCN1C(=O)/C(=C2\Sc3cccc(F)c3N2C)S/C1=N\c1ccccc1 | – | – | – | – | > 50 | – | > 30 | – |
| CCN1C(=O)/C(=C2\Sc3cc(F)ccc3N2C)S/C1=N\c1ccccc1 | – | – | – | – | > 50 | – | > 30 | – |
| COC(=O)Cn1c(=O)/c(=C2\Sc3ccccc3N2C)s/c1=C\c1scc[n+]1Cc1ccccc1 | – | – | – | – | > 50 | – | 0.87 ± 0.14 | – |
| CCn1c(=O)/c(=C2\Sc3c(ccc(F)c3F)N2C)s/c1=C\c1cccc[n+]1Cc1ccccc1 | 1.36 ± 0.16 | 6 ± 0.64 | 2.1 ± 0.43 | 2.64 ± 0.35 | – | – | – | – |
| CCn1c(=O)/c(=C2\Sc3cccc(Cl)c3N2C)s/c1=C\c1scc[n+]1Cc1ccccc1 [drawing 57] | 1.14 ± 0.15 | 1.87 ± 0.23 | 0.83 ± 0.19 | 0.41 ± 0.02 | – | – | – | 6.96 ± 0.63 |
| CCn1c(=O)/c(=C2\Sc3c(cccc3C(F)(F)F)N2C)s/c1=C\c1cccc[n+]1Cc1ccccc1 | 2.45 ± 0.26 | 21.1 ± 3.96 | 2.31 ± 0.43 | 3.46 ± 0.39 | – | – | – | – |
| COC(=O)Cn1c(=O)/c(=C2\Sc3ccccc3N2C)s/c1=C\c1nccs1 | – | – | – | – | > 50 | – | > 30 | – |

| Compound | IC50 [1] [µM] | IC50 [2] [µM] | IC50 [3] [µM] | IC50 [4] [µM] | IC50 ([5]; second table) [µM] | IC50 ([3]; second table) [µM] | IC50 ([4]; second table) [µM] | IC50 [5] [µM] |
| --- | --- | --- | --- | --- | --- | --- | --- | --- |
| CCn1c(=O)/c(=C2\Sc3c(F)cccc3N2C)s/c1=C\c1cccc[n+]1CC | – | – | – | – | 27.1 ± 3 | 0.8 ± 0.1 | 2.8 ± 0.2 | – |
| CCn1c(=O)/c(=C2\Sc3cc(OC(F)(F)F)ccc3N2C)s/c1=C\c1ccccn1 | – | – | – | – | > 50 | – | 4.4 ± 0.5 | – |
| CN1/C(=c2\s/c(=C\c3cc(Cl)cc[n+]3C)n(Cc3ccccc3)c2=O)Sc2ccccc21 | 1.12 ± 0.04 | – | 2.81 ± 1.01 | 2.83 ± 0.26 | – | – | – | – |
| COC(=O)Cn1c(=O)/c(=C2\Sc3cc(C(F)(F)F)ccc3N2C)s/c1=C\c1nccs1 | – | – | – | – | > 50 | – | > 30 | – |
| CCn1c(=O)/c(=C2\Sc3ccc(F)cc3N2C)s/c1=C\c1cccc[n+]1CC | – | – | – | – | > 30 | 2.4 ± 0.6 | 13.3 ± 0.7 | – |
| CCn1c(=O)/c(=C2\Sc3cccc(F)c3N2C)s/c1=C\c1scc[n+]1Cc1ccccc1 [drawing 56] | 1.07 ± 0.05 | 2.23 ± 0.28 | 0.96 ± 0.2 | 0.4 ± 0.03 | – | – | – | 8.29 ± 0.66 |
| C=CCn1c(=O)/c(=C2\Sc3c(F)cccc3N2C)s/c1=C\c1ccncc1 | – | – | – | – | > 50 | – | 3.07 ± 0.73 | – |
| COC(=O)Cn1c(=O)/c(=C2\Sc3cc(C(F)(F)F)ccc3N2C)s/c1=C\c1ccccn1 | – | – | – | – | > 50 | – | > 30 | – |
| CCn1c(=O)/c(=C2\Sc3cccc(Cl)c3N2C)s/c1=C\c1cccc[n+]1Cc1ccccc1 | 0.61 ± 0.09 | 3.7 ± 0.35 | 1.37 ± 0.27 | 0.72 ± 0.18 | – | – | – | 6.46 ± 0.7 |
| CCn1c(=O)/c(=C2\Sc3ccccc3N2C)s/c1=C\c1scc[n+]1CC | – | – | – | – | > 30 | 0.8 ± 0.1 | 2.2 ± 0.2 | – |
| CCn1c(=O)/c(=C2\Sc3ccccc3N2C)s/c1=C\c1ccc(F)c[n+]1C | 5.34 ± 0.26 | 15 ± 0.98 | > 30 | 7.82 ± 0.78 | – | – | – | – |
| CCn1c(=O)/c(=C2\Sc3cccc(F)c3N2C)s/c1=C\c1cccc[n+]1CC | – | – | – | – | > 30 | 1 ± 0.3 | 3.8 ± 0.2 | – |
| CCn1c(=O)/c(=C2\Sc3ccccc3N2C)s/c1=C\c1cccc[n+]1Cc1ccccc1 | 1.46 ± 0.15 | 3.29 ± 0.36 | 1.49 ± 0.22 | 1.02 ± 0.2 | – | – | – | 14.6 ± 1.17 |
| CCn1c(=O)/c(=C2\Sc3cc(C(F)(F)F)ccc3N2C)s/c1=C\c1scc[n+]1C | – | – | – | – | – | – | 8.5 ± 1 | – |
| CCn1c(=O)/c(=C2\Sc3c(ccc(F)c3F)N2C)s/c1=C\c1scc[n+]1Cc1ccc(C(F)(F)F)o1 | – | – | – | – | – | – | 0.51 ± 0.05 | – |
| CCn1c(=O)/c(=C2\Sc3cc(C#N)ccc3N2C)s/c1=C\c1ccccn1 | – | – | – | – | – | – | 22.3 ± 4.61 | – |

Reference: patent US9808448B2, “Pharmaceutical compounds and use of same in cancer and tauopathies” (THE REGENTS OF THE UNIVERSITY OF MICHIGAN, priority 2013, dated 2017)
